Results on two compounds are retold here after PubChem BioAssay AID686941 (The Scripps Research Institute Molecular Screening Center, 2013).

The structures appear in SMILES notation. Some results are limits rather than exact numbers.

Assay [1] addresses Cytochrome P450 3A5 (Homo sapiens) (UniProt P20815). As to the kind of experiment: CYP3A4 and CYP3A5 inhibition, late-stage follow-up, counter-screen, biochemical, LC-MS/MS, purified recombinant enzymes (AID 686941). The settings on record: recombinant CYP3A4/CYP3A5, LC-MS/MS metabolite formation, CYP3A5. (In general: A counterscreen serves to expose hits that act by an unwanted route or on another target.)

The target in assay [2] is Cytochrome P450 3A4 (Homo sapiens) (UniProt P08684). The assay is described as above. The conditions noted are these: recombinant CYP3A4/CYP3A5, LC-MS/MS metabolite formation; CYP3A4.
Cytochrome P450 3A4 (Homo sapiens), sequence (P08684 whole entry, looked up): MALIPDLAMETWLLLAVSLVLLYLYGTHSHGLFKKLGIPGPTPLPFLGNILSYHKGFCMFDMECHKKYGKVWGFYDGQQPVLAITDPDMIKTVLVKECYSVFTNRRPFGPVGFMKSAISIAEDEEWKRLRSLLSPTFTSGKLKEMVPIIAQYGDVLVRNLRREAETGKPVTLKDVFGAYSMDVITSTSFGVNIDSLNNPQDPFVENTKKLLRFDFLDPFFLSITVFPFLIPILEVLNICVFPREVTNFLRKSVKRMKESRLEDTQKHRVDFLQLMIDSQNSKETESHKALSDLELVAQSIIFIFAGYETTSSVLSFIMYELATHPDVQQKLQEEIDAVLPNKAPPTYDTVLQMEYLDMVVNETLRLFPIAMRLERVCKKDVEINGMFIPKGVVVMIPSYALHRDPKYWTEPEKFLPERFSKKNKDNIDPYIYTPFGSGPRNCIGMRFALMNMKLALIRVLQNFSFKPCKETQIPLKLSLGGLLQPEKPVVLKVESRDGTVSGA

Cytochrome P450 3A5 (Homo sapiens), sequence (P20815 whole entry, looked up): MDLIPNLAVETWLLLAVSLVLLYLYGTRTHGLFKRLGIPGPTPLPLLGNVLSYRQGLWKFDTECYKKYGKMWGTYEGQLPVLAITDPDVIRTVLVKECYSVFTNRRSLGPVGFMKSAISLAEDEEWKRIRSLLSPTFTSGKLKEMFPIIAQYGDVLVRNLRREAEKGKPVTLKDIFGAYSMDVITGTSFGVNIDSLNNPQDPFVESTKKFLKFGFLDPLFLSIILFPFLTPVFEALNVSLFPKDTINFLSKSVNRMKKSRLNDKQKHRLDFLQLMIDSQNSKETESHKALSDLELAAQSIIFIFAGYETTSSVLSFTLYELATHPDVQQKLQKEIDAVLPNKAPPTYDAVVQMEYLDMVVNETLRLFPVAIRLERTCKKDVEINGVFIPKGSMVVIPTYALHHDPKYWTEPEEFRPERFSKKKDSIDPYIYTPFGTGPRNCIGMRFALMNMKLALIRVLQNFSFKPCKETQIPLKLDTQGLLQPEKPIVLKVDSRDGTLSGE

The term IC50 denotes the concentration at which inhibition is half-maximal. In the case of `O=C(Nc1ccc(-c2ccc3ccccc3c2)cc1)Nc1ccc(-c2ccnc3nc[nH]c23)cc1`, the IC50 in assay [1] was 13000 nM; in assay [2], 1700 nM.

A word on the inhibition: it is the drop in the measured response relative to a control, in per cent. With `NC(=O)c1ccc(-c2ccc(NC(=O)Nc3ccc(-c4ccnc5nc[nH]c45)cc3)cc2)cc1`, the inhibition in assay [1] (at 60 µM, stronger effect = higher value) amounted to 26%. Further, the IC50 in assay [2] was over 200 nM.
